Laboratory results published in ChEMBL document CHEMBL4765295, “Synthesis, pharmacological profile and 2D-QSAR studies of curcumin-amino acid conjugates as potential drug candidates” (Eur J Med Chem, 2020).
Values after ≈ are worked out from the molar mass of the structure shown. Values joined by “and” are separate entries in the source; they are usually repeats but may differ in a detail not shown here. Identical values can stand only once.

How the values were obtained:
Rattus norvegicus [1] = experiment: Anti-inflammatory activity in Wistar rat assessed as inhibition of carrageenan-induced paw edema at 10 mg/kg, ip pretreated for 1 hr followed by carrageenan challenge and measured after 4 hr relative to control (reference value: 0.00 +/-0.4 %); type: functional; settings: time 5 hrs
Mus musculus [2] = experiment: Analgesic activity in albino mouse assessed as forepaw licking/jumping latency time at 10 mg/kg, ip measured after 30 mins by hot plate test (reference value: 5.02 +/- 0.09 sec); type: functional; settings: 0.5 h
Rattus norvegicus [3] = experiment: Anti-inflammatory activity in Wistar rat assessed as inhibition of carrageenan-induced paw edema at 10 mg/kg, ip pretreated for 1 hr followed by carrageenan challenge and measured after 4 hr relative to indomethacin; type: functional; settings: time 5 hrs
Rattus norvegicus [4] = experiment: Antiinflammatory activity in Wistar rat model of carrageenan-induced paw edema assessed as reduction in thickness of paw edema at 10 mg/kg, ip pretreated for 1 hr followed by carrageenan challenge and measured after 3 hrs (reference value: 1.79 +/-0.07 mm); type: functional; settings: time 4 hrs
Rattus norvegicus [5] = experiment: Anti-inflammatory activity in Wistar rat assessed as inhibition of carrageenan-induced paw edema at 10 mg/kg, ip pretreated for 1 hr followed by carrageenan challenge and measured after 1 hr relative to control (reference value: 0.00 +/-0.02 %); type: functional; settings: time 2 hrs
[6] = Ulcerogenic activity in fasted albino mouse assessed as incidence of gastric ulceration at 10 mg/kg, po for 3 days (reference value: 0 %); type: toxicity, organism-based; settings: in vivo, 72 h, time 3 day
Splenocyte [7] = experiment: Immunomodulatory activity in Swiss albino mouse splenocytes assessed as cell viability at 10 uM by measuring inhibition of stimulation index incubated for 72 hrs in presence of mitogenic stimulus phytohaemagglutinin by MTT assay relative to indomethacin; type: functional; settings: read-out: Activity
Mus musculus [8] = experiment: Analgesic activity in albino mouse assessed as protection at 10 mg/kg, ip measured after 60 mins by hot plate test (reference value: 0 %); type: functional; settings: 1 h
Mus musculus [9] = experiment: Analgesic activity in albino mouse assessed as forepaw licking/jumping latency time at 10 mg/kg, ip measured after 60 mins by hot plate test (reference value: 3.42 +/- 0.03 sec); type: functional; settings: 1 h
Candida albicans = experiment: Antifungal activity against Candida albicans incubated for 18 to 24 hrs by CLSI method; type: functional; settings: time 18-24 hrs
[10] = Ulcerogenic activity in fasted albino mouse assessed as average number of ulcers in gastric mucosa at 10 mg/kg, po for 3 days (reference value: 0); type: toxicity, organism-based; settings: in vivo, 72 h, time 3 day
Mus musculus [11] = experiment: Analgesic activity in albino mouse assessed as protection at 10 mg/kg, ip measured after 120 mins by hot plate test relative to indomethacin; type: functional; settings: 2 h
Rattus norvegicus [12] = experiment: Anti-inflammatory activity in Wistar rat assessed as inhibition of carrageenan-induced paw edema at 10 mg/kg, ip pretreated for 1 hr followed by carrageenan challenge and measured after 2 hr relative to control (reference value: 0.00 +/-0.03 %); type: functional; settings: time 3 hrs
Streptococcus pyogenes = experiment: Antibacterial activity against Streptococcus pyogenes ATCC 19615 incubated for 18 hrs by agar dilution method; type: functional
Rattus norvegicus [13] = experiment: Antiinflammatory activity in Wistar rat model of carrageenan-induced paw edema assessed as reduction in thickness of paw edema at 10 mg/kg, ip pretreated for 1 hr followed by carrageenan challenge and measured after 4 hrs (reference value: 1.40 +/-0.10 mm); type: functional; settings: time 5 hrs
Mus musculus [14] = experiment: Analgesic activity in albino mouse assessed protection against acetic acid-induced abdominal writhing at 10 mg/kg, ip pretreated for 1 hr followed by acetic acid challenge and measured starting 5 mins post acetic acid challenge for 10 mins relative to control (reference value: 0 %); type: functional; settings: time 75 min, 1.25 h
Mus musculus [15] = experiment: Analgesic activity in albino mouse assessed protection against acetic acid-induced abdominal writhing at 10 mg/kg, ip pretreated for 1 hr followed by acetic acid challenge and measured starting 5 mins post acetic acid challenge for 10 mins relative to indomethacin; type: functional; settings: time 75 min, 1.25 h
Mus musculus [16] = experiment: Analgesic activity in albino mouse assessed as protection at 10 mg/kg, ip measured after 30 mins by hot plate test (reference value: 0 %); type: functional; settings: 0.5 h
Mus musculus [17] = experiment: Analgesic activity in albino mouse assessed as forepaw licking/jumping latency time at 10 mg/kg, ip measured after 120 mins by hot plate test (reference value: 2.62 +/- 0.06 sec); type: functional; settings: 2 h
Mus musculus [18] = experiment: Analgesic activity in albino mouse assessed as protection at 10 mg/kg, ip measured after 90 mins by hot plate test (reference value: 0 %); type: functional; settings: 1.5 h
Splenocyte [19] = experiment: Immunomodulatory activity in Swiss albino mouse splenocytes assessed as cell viability at 10 uM by measuring stimulation index incubated for 72 hrs in presence of mitogenic stimulus phytohaemagglutinin by MTT assay (reference value: 1.00 +/- 0.24); type: functional
[20] = Ulcerogenic activity in fasted albino mouse assessed as ulcer index in gastric mucosa at 10 mg/kg, po for 3 days (reference value: 0); type: toxicity, organism-based; settings: in vivo, 72 h, time 3 day
[21] = Toxicity in albino mouse assessed as induction of toxic symptoms at 50 to 100 mg/kg, ip measured after 24 hrs; type: organism-based; settings: in vivo, dose 50-100 mg/kg
Rattus norvegicus [22] = experiment: Anti-inflammatory activity in Wistar rat assessed as inhibition of carrageenan-induced paw edema at 10 mg/kg, ip pretreated for 1 hr followed by carrageenan challenge and measured after 3 hr relative to control (reference value: 0.00 +/-0.1 %); type: functional; settings: time 4 hrs
Mus musculus [23] = experiment: Analgesic activity in albino mouse assessed as protection at 10 mg/kg, ip measured after 120 mins by hot plate test (reference value: 0 %); type: functional; settings: 2 h
Rattus norvegicus [24] = experiment: Antiinflammatory activity in Wistar rat model of carrageenan-induced paw edema assessed as reduction in thickness of paw edema at 10 mg/kg, ip pretreated for 1 hr followed by carrageenan challenge and measured after 24 hrs (reference value: 0.83 +/-0.08 mm); type: functional; settings: time 25 hrs
Rattus norvegicus [25] = experiment: Antiinflammatory activity in Wistar rat model of carrageenan-induced paw edema assessed as reduction in thickness of paw edema at 10 mg/kg, ip pretreated for 1 hr followed by carrageenan challenge and measured after 1 hr (reference value: 2.41 +/-0.05 mm); type: functional; settings: time 1 hr after carrageenan
Staphylococcus aureus = experiment: Antibacterial activity against Staphylococcus aureus ATCC 25923 incubated for 18 hrs by agar dilution method; type: functional
Mus musculus [26] = experiment: Analgesic activity in albino mouse assessed as forepaw licking/jumping latency time at 10 mg/kg, ip measured after 90 mins by hot plate test (reference value: 2.72 +/- 0.01 sec); type: functional; settings: 1.5 h
[27] = Ulcerogenic activity in fasted albino mouse assessed as average severity of ulcers in gastric mucosa at 10 mg/kg, po for 3 days (reference value: 0); type: toxicity, organism-based; settings: in vivo, 72 h, time 3 day
Salmonella typhimurium = experiment: Antibacterial activity against Salmonella typhimurium ATCC 19430 incubated for 18 hrs by agar dilution assay; type: functional, Salmonella enterica subsp. enterica serovar Typhimurium; settings: Salmonella enterica
Rattus norvegicus [28] = experiment: Antiinflammatory activity in Wistar rat model of carrageenan-induced paw edema assessed as reduction in thickness of paw edema at 10 mg/kg, ip pretreated for 1 hr followed by carrageenan challenge and measured after 2 hrs (reference value: 2.06 +/-0.09 mm); type: functional; settings: time 3 hrs
Mus musculus [29] = experiment: Analgesic activity in albino mouse assessed reduction in acetic acid-induced abdominal writhing by measuring writing reflex at 10 mg/kg, ip pretreated for 1 hr followed by acetic acid challenge and measured starting 5 mins post acetic acid challenge for 10 mins (reference value: 42.4 +/- 1.02); type: functional; settings: time 75 min, 1.25 h
Rattus norvegicus [30] = experiment: Anti-inflammatory activity in Wistar rat assessed as inhibition of carrageenan-induced paw edema at 10 mg/kg, ip pretreated for 1 hr followed by carrageenan challenge and measured after 24 hr relative to control (reference value: 0.00 +/-0.3 %); type: functional; settings: time 25 hrs
Pseudomonas aeruginosa = experiment: Antibacterial activity against Pseudomonas aeruginosa ATCC 27853 incubated for 18 hrs by agar dilution assay; type: functional
Peritoneal macrophage [31] = experiment: Antiinflammatory activity in […] mouse Peritoneal macrophages assessed as inhibition of LPS-induced NO production at 10 uM preincubated for 1 hr followed by LPS stimulation measured after 24 hrs by Griess method relative to control (reference value: 0.0 %); type: functional; parameters: scale not given: the % may be the effect or the level left; settings: time 25 hrs
Peritoneal macrophage [32] = experiment: Antiinflammatory activity in […] mouse Peritoneal macrophages assessed as reduction in LPS-induced NO production by measuring reduction in stimulation index at 10 uM preincubated for 1 hr followed by LPS stimulation measured after 24 hrs by Griess method (reference value: 27.31 +/- 2.56 uM); type: functional; settings: time 25 hrs

| SMILES | inhibition in vivo at 10 mg/kg (Rattus norvegicus [1]) | Time (Mus musculus [2]) | inhibition in vivo at 10 mg/kg (Rattus norvegicus [3]) | Activity (Rattus norvegicus [4]) | inhibition in vivo at 10 mg/kg (Rattus norvegicus [5]) | Activity [6] | Activity (Mus musculus [8]) | Time (Mus musculus [9]) | Activity [10] | Activity (Mus musculus [11]) | inhibition in vivo at 10 mg/kg (Rattus norvegicus [12]) | Activity (Rattus norvegicus [13]) | Activity (Mus musculus [14]) | Activity (Mus musculus [15]) | Activity (Mus musculus [16]) | Time (Mus musculus [17]) | Activity (Mus musculus [18]) | inhibition in vivo at 10 mg/kg (Rattus norvegicus [22]) | Activity (Mus musculus [23]) | Activity (Rattus norvegicus [24]) | also measured |
| --- | --- | --- | --- | --- | --- | --- | --- | --- | --- | --- | --- | --- | --- | --- | --- | --- | --- | --- | --- | --- | --- |
| COc1cc(/C=C/C(=O)/C=C(O)/C=C/c2ccc(OC(=O)[C@@H](CCSC)NC(=O)OC(C)(C)C)c(OC)c2)ccc1OC(=O)[C@@H](CCSC)NC(=O)OC(C)(C)C | 89% | 5.14 s | 102% | 0.47 mm | 58% | 0% | 60.2% | 5.48 s | 0 | 169% | 69% | 0.15 mm | 53.8% | 87.3% | 2.4% | 4.48 s | 77.2% | 74% | 71% | 0.49 mm | viability at 10 µM (Splenocyte [7]): 47.7%; MIC (Candida albicans): 0.5 µg/mL and 0.602 µM; MIC (Streptococcus pyogenes): 0.125 µg/mL and 0.15 µM; Activity_index (Splenocyte [19]): 2.53; UI [20]: 0; Activity [21]: Non-Toxic; Activity (Rattus norvegicus [25]): 1.1 mm; MIC (Staphylococcus aureus): 0.25 µg/mL and 0.301 µM; Time (Mus musculus [26]): 4.82 s; Activity [27]: 0; MIC (Salmonella typhimurium): 1 µg/mL and 1.2 µM; Activity (Rattus norvegicus [28]): 0.63 mm; Activity (Mus musculus [29]): 19.6; inhibition in vivo at 10 mg/kg (Rattus norvegicus [30]): 41%; MIC (Pseudomonas aeruginosa): 0.25 µg/mL and 0.301 µM |
| COc1cc(/C=C/C(=O)CC(=O)/C=C/c2ccc(O)c(OC)c2)ccc1O [CURCUMIN] | 85% | 5.04 s | 98% | 0.45 mm | 12% | 3.33% | 35.1% | 4.62 s | 0.33 | 76.4% | 60% | 0.21 mm | 52.1% | 84.6% | 0.4% | 3.46 s | 66.9% | 75% | 32.1% | 0.53 mm | viability at 10 µM (Splenocyte [7]): 79.5%; MIC (Candida albicans): 0.125 µg/mL and 0.339 µM; MIC (Streptococcus pyogenes): 0.125 µg/mL and 0.339 µM; Activity_index (Splenocyte [19]): 1.52; UI [20]: 3.99; Activity (Rattus norvegicus [25]): 2.12 mm; MIC (Staphylococcus aureus): 0.339 µM (≈ 0.125 µg/mL); Activity (Peritoneal macrophage [31]): 37.11%; Time (Mus musculus [26]): 4.54 s; Activity [27]: 0.33; MIC (Salmonella typhimurium): 0.125 µg/mL and 0.339 µM; Activity (Rattus norvegicus [28]): 0.82 mm; Activity (Mus musculus [29]): 20.3; inhibition in vivo at 10 mg/kg (Rattus norvegicus [30]): 36%; MIC (Pseudomonas aeruginosa): 0.125 µg/mL and 0.339 µM; Activity (Peritoneal macrophage [32]): 17.18 µM |
| CC(C)Cc1ccc(C(C)C(=O)O)cc1 (centres undefined) [IBUPROFEN] | 79% | 5.4 s | 91% | 0.63 mm | 20% | 3.33% | 49.7% | 5.12 s | 0.33 | 78.1% | 60% | 0.29 mm | 42.9% | 69.6% | 7.6% | 3.48 s | 51.5% | 65% | 32.8% | 0.71 mm | Activity (Rattus norvegicus [25]): 1.93 mm; Time (Mus musculus [26]): 4.12 s; Activity [27]: 0.67; Activity (Rattus norvegicus [28]): 0.82 mm; Activity (Mus musculus [29]): 24.2; inhibition in vivo at 10 mg/kg (Rattus norvegicus [30]): 14% |
| COc1ccc2c(c1)c(CC(=O)O)c(C)n2C(=O)c1ccc(Cl)cc1 [INDOMETHACIN] | 87% | 6.3 s | 100% | 0.59 mm | 53% | 10% | 53.8% | 5.26 s | 2 | 100% | 59% | 0.18 mm | 61.6% | 100% | 25.5% | 3.72 s | 41.2% | 67% | 42% | 0.12 mm | UI [20]: 13.67; Activity (Rattus norvegicus [25]): 1.11 mm; Time (Mus musculus [26]): 3.84 s; Activity [27]: 1.67; Activity (Rattus norvegicus [28]): 0.85 mm; Activity (Mus musculus [29]): 16.3; inhibition in vivo at 10 mg/kg (Rattus norvegicus [30]): 86% |
